The values that follow come from patent US9321762B2, “Quinazoline compounds, method for preparing the same and use thereof” (DEVELOPMENT CENTER FOR BIOTECHNOLOGY, priority 2013, dated 2016).

Experiment [1] deals with T1, B-Raf(V600E) kinase (Homo sapiens, UniProt P15056, V600E).
T1 construct: purchased Upstate Biotechnology
Put plainly: B-Raf(V600E) kinase assay ([33P] incorporation into MEK1(K97R)). The class given is biochemical. The conditions noted are these: class symbols; 8 μM ATP; read-out: IC50 against B-Raf(V600E) kinase. Here is the method: (§1) Inhibition of kinase activity by a test compound disclosed herein was estimated by quantifying the amount of [^33P] incorporation of a substrate in the presence of the test compound. Standard assay conditions were 5 ng of recombinant B-Raf(V600E) kinase (Upstate Biotechnology) with 500 ng MEK1 (K97R) in assay buffer (8 μM ATP, 0.5 μCi [^33P] ATP (specific activity 3000 Ci/mmol, PerkinElmer), 50 mM Tris/HCl (pH7.5), and 1 mM EGTA, 1 mM Na3VO4, 1% 2-mercaptoethanol, 0.1% Brij 35, and 0.2 mg/ml BSA), and the test compound (diluted with 4% DMSO) or DMSO alone (as a control) in a final volume of 25 μL. Reactions were incubated at 30° C. for 30 min and stopped by adding 3% phosphoric acid, harvested onto a 96-well GF/B UniFilter (PerkinElmer) using a unifilter harvester (PerkinElmer), and counted with a TopCount microplate scintillation counter (PerkinElmer). The IC50 values of inhibitors were determined after carrying out assays at 3-fold serially diluted concentrations of each compound in duplication. The results were analyzed using linear regression software (GraphPad Prism 4; GraphPad Software Inc.).

Experiment [2] concerns the target T2, VEGFR2 kinase (Homo sapiens, UniProt P35968).
T2 construct: VEGFR2 kinase domain alone, Millipore; purchased Millipore
Briefly: VEGFR2 radiometric kinase assay. The class given is biochemical. The conditions noted are these: given as bound; 100 μM ATP; read-out: Inhibition activity, IC50 VEGFR2. The method, then:
(§2) The inhibitory activity against VEGFR2 or EGFR was determined by radiometric kinase assay. The experimental condition for VEGFR2 kinase assay was 6.25 ng of recombinant VEGFR2 kinase (VEGFR2 kinase domain alone, Millipore), 5 μg of substrate Poly(Glu-Tyr) (4:1, Sigma), kinase reaction buffer (20 mM MOPS pH 7.0, 1 mM EDTA, 5% glycerol, 0.01% Brij-35, 0.1% β-mercaptoethanol, 1 mg/mL BSA, 100 μM ATP, and 0.1 μCi per well [^33P] ATP (specific activity 3000 Ci/mmol, PerkinElmer)), and the test compound (diluted with 4% DMSO) or DMSO alone (as a control) in a final volume of 25 μL. Reactions were incubated at 30° C. for 30 min and stopped by adding 3% phosphoric acid, harvested onto a 96-well GF/B UniFilter (PerkinElmer) using a unifilter harvester (PerkinElmer), and counted with a TopCount microplate scintillation counter (PerkinElmer).
(§3) Results of inhibition activity against VEGFR2 and EGFR kinases by the selected compounds, which have IC50 values on B-Raf kinase <300 nM, are summarized in Table 6.

Experiment [3] addresses T3, EGFR kinase (Homo sapiens, UniProt P00533).
T3 construct: EGFR kinase domain alone, Millipore; purchased Millipore
Put plainly: EGFR radiometric kinase assay. The conditions noted are these: 100 μM ATP, read-out: Inhibition activity, IC50 EGFR. Format: biochemical. The method, then:
as §2
The experimental condition for EGFR kinase assay was 25 ng of EGFR kinase (EGFR kinase domain alone, Millipore), 3 μg of the substrate poly(Glu-Tyr), (Sigma), kinase reaction buffer (10 mM MOPS pH 7.0, 0.3 mM EDTA, 0.5% glycerol, 0.001% Brij-35, 10 mM MnCl2, 0.1 mg/ml BSA, 100 μM ATP, and 0.1 μCi per well [^33P]ATP (specific activity 3000 Ci/mmol, PerkinElmer)), and the test compound (diluted with 4% DMSO) or DMSO (as a control) in a final volume of 25 μL. Reactions were incubated at 30° C. for 30 min and stopped by adding 3% phosphoric acid, harvested onto a 96-well GF/B UniFilter (PerkinElmer) using a unifilter harvester (PerkinElmer), and counted with a TopCount microplate scintillation counter (PerkinElmer).
as §3

The test system of experiment [4] is A375 melanoma cells and COLO205 colon cancer cells. Put plainly: Cell proliferation assay (CellTiter-96). The class given is cell-based. The conditions noted are these: Homo sapiens; A375 or COLO205, 72 hours treatment; read-out: Cytotoxicity IC50 for A375 or COLO205. Here is the method: The anti-proliferative activities of compounds of formula (I) against B-Raf(V600E) mutant human cancer cell lines, A375 melanoma cells and COLO205 colon cancer cells, were measured using the CellTiter™-96 assay kit (Promega) following the manufacturer's instructions. In brief, the cells were maintained in DMEM containing 10% FCS and incubated at 37° C. in 5% CO2 atmosphere. Cells were plated at a density of 2,000 cells/well on a 96-well plate and incubated for 24 h. Then, these cells were treated with different concentrations of the test compounds and incubated for another 72 hours. At the end of the incubation, CellTiter™-96 Aqueous One Solution Reagent (Promega) was added and incubated for another 4.0 hours. Cell viability was determined by measuring absorbance at 490 nm using EMax® microplate reader (Molecular Devices). Data were processed and analyzed using GraphPad Prism.

Experiment [5] concerns the target T4, B-Raf kinase (Homo sapiens, UniProt P15056).
T4 construct: purchased Upstate Biotechnology
Briefly: B-Raf kinase assay ([33P] incorporation into MEK1(K97R)). The class given is biochemical. The conditions noted are these: class symbols; 8 μM ATP; read-out: IC50 against B-Raf kinase. Here is the method:
as §1, with “B-Raf” for “B-Raf(V600E)”, “MEK1(K97R)” for “MEK1 (K97R)”, “[^33P]ATP” for “[^33P] ATP”, “BSA)” for “BSA), and the test compound (diluted with 4% DMSO) or DMSO alone (as a control)”

The target of experiment [6] is T5, C-Raf kinase (Homo sapiens, UniProt P04049).
T5 construct: purchased Upstate Biotechnology
T5 sequence (P04049 whole entry): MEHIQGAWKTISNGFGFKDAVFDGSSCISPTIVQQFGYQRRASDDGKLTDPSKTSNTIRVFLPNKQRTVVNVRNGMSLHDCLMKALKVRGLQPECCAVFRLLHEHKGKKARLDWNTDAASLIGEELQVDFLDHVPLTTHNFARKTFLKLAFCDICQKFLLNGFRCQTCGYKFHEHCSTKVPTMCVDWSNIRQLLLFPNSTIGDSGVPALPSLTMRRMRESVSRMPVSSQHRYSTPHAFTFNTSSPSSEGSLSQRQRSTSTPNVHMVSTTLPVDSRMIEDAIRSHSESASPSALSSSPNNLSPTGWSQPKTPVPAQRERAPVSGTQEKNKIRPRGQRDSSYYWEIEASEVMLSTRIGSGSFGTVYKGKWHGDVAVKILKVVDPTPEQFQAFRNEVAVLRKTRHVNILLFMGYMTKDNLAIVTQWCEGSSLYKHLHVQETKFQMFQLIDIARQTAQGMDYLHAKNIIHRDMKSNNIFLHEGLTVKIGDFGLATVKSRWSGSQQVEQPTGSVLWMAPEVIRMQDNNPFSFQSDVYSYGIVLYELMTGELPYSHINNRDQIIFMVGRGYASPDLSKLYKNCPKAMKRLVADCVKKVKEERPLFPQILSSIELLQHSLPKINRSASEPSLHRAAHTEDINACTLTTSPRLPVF
Put plainly: C-Raf kinase assay ([33P] incorporation into MEK1(K97R)). Format: biochemical. The conditions noted are these: class symbols; 8 μM ATP; read-out: IC50 against C-Raf kinase. Here is the method: as §1, with “were 2” for “were 5”, “recombinant C-Raf” for “recombinant B-Raf(V600E)”

Like-named read-outs stand apart in the source and are kept apart here.

T3 sequence (P00533 712-979 limits assumed): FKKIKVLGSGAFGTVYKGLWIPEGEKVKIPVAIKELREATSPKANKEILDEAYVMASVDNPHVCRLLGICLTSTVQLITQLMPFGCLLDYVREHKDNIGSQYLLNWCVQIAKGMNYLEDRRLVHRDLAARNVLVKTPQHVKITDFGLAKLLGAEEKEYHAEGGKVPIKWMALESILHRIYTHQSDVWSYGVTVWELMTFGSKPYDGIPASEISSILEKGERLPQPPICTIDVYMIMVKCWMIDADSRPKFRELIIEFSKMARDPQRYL
T4 sequence (P15056 whole entry): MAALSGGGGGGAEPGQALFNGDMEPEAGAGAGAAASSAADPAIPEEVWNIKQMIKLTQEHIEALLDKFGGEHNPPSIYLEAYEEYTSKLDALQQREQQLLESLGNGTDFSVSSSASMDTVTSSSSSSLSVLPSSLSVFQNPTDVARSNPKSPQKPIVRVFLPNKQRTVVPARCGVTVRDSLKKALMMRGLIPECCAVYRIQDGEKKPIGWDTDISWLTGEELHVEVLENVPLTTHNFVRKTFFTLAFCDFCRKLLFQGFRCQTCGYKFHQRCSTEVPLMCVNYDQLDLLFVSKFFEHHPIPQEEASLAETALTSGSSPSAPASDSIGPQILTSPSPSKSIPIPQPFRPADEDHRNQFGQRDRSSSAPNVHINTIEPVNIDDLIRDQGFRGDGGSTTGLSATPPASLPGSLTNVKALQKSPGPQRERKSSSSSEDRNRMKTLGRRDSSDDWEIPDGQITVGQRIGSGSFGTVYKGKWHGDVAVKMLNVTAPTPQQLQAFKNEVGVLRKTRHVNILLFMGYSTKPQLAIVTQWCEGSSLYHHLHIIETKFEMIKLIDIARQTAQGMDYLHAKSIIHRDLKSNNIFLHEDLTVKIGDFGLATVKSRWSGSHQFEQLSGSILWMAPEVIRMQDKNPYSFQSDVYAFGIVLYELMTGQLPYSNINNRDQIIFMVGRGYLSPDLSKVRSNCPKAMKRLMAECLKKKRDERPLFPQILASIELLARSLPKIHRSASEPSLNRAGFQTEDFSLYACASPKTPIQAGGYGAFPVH
T1 sequence (P15056 whole entry V600E): as the sequence (P15056 whole entry) above, with V600E counted along it
T2 sequence (P35968 834-1162 limits assumed): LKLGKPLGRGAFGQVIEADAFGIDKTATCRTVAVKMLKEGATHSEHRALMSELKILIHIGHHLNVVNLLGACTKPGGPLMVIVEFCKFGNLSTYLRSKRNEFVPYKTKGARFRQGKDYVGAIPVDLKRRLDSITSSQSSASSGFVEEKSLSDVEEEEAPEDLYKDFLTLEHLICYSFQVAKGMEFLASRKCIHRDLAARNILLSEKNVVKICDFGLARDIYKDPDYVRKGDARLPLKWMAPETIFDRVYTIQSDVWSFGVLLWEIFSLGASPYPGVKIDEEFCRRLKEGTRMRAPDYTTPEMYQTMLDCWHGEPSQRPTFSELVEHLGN

Turning to `CCCS(=O)(=O)Nc1ccc(F)c(Nc2ccnc3ccc(-c4ccncc4)cc23)c1F` [compound 14, N-(2,4-difluoro-3-(6-(pyridin-4-yl)quinolin-4-ylamino)phenyl)propane-1-sulfonamide], the IC50 was under 0.3 µM in experiment [1]; over 3 µM in experiment [2]; 1 to 3 µM in experiment [3] (class symbols); under 2 µM in experiment [4]; under 0.3 µM in experiment [5]; under 0.3 µM in experiment [6].
With `CCCS(=O)(=O)Nc1ccc(F)c(Nc2ncnc3cc(OC)c(-c4cccnc4F)cc23)c1F` [compound 28, N-(2,4-difluoro-3-(6-(2-fluoropyridin-3-yl)-7-methoxyquinazolin-4-ylamino)phenyl)propane-1-sulfonamide], the half-inhibitory concentration (IC50) in experiment [1] is under 0.3 µM; in experiment [2], over 3 µM; in experiment [3] (class symbols), 0.3 to 1 µM; in experiment [4], under 2 µM; in experiment [5], under 0.3 µM; in experiment [6], under 0.3 µM.
As to `CCCS(=O)(=O)Nc1ccc(F)c(Nc2ncnc3ccc(-c4cnc(OC)c([N+](=O)[O-])c4)cc23)c1F` [compound 58, N-(2,4-difluoro-3-(6-(6-methoxy-5-nitropyridin-3-yl)quinazolin-4-ylamino)phenyl)propane-1-sulfonamide], the IC50 in experiment [1] was under 0.3 µM; in experiment [2] it was over 3 µM; in experiment [3] (given as bound) it was over 3 µM; in experiment [4] it was under 2 µM; in experiment [5] it was under 0.3 µM; in experiment [6] it was under 0.3 µM.
In the case of `CCCS(=O)(=O)Nc1ccc(F)c(Nc2ncnc3ccc(-c4cnccc4F)cc23)c1F` [compound 66, N-(2,4-difluoro-3-(6-(4-fluoropyridin-3-yl)quinazolin-4-ylamino)phenyl)propane-1-sulfonamide], the IC50 in experiment [1] is under 0.3 µM; in experiment [2], over 3 µM; in experiment [3] (given as bound), over 3 µM; in experiment [4], under 2 µM; in experiment [5] it was under 0.3 µM; in experiment [6] it was under 0.3 µM.
On to `CCCS(=O)(=O)Nc1ccc(F)c(Nc2ncnc3ccc(-c4cccc(OCCN(C)C)n4)cc23)c1F` [compound 39, N-(3-(6-(6-(2-(dimethylamino)ethoxy)-pyridin-2-yl)quinazolin-4-ylamino)-2,4-difluorophenyl)propane-1-sulfonamide], for which the IC50 is under 0.3 µM in experiment [1]; over 3 µM in experiment [2]; over 3 µM in experiment [3] (given as bound); under 2 µM in experiment [4]; under 0.3 µM in experiment [5]; 1 to 10 µM in experiment [6].
In the case of `O=S(=O)(Nc1ccc(F)c(Nc2ncnc3ccc(-c4cccnc4F)cc23)c1F)c1ccccc1` [compound 21, N-(2,4-difluoro-3-(6-(2-fluoropyridin-3-yl)quinazolin-4-ylamino)phenyl)benzenesulfonamide], the IC50 is under 0.3 µM in experiment [1]; over 3 µM in experiment [2]; 1 to 3 µM in experiment [3] (class symbols); under 2 µM in experiment [4]; under 0.3 µM in experiment [5]; under 0.3 µM in experiment [6].
Regarding `CCCS(=O)(=O)Nc1ccc(F)c(Nc2ccnc3ccc(-c4ccnc(F)c4)cc23)c1F` [compound 25, N-(2,4-difluoro-3-(6-(2-fluoropyridin-4-yl)quinolin-4-ylamino)phenyl)propane-1-sulfonamide], the IC50 in experiment [1] was under 0.3 µM; in experiment [2], over 3 µM; in experiment [3] (given as bound) it was over 3 µM; in experiment [4], under 2 µM; in experiment [5], under 0.3 µM; in experiment [6] it was under 0.3 µM.
Take `CCCS(=O)(=O)Nc1ccc(F)c(Nc2ccnc3ccc(-c4cccnc4F)cc23)c1F` [compound 13, N-(2,4-difluoro-3-(6-(2-fluoropyridin-3-yl)-quinolin-4-ylamino)phenyl)propane-1-sulfonamide]: the IC50 in experiment [1] is under 0.3 µM; in experiment [2] it was over 3 µM; in experiment [3] (given as bound), over 3 µM; in experiment [4] it was under 2 µM; in experiment [5], under 0.3 µM; in experiment [6] it was under 0.3 µM.
With `CCCS(=O)(=O)Nc1ccc(F)c(Nc2ncnc3ccc(-c4cccc(C#N)n4)cc23)c1F` [compound 63, N-(3-(6-(6-cyanopyridin-2-yl)quinazolin-4-ylamino)-2,4-difluorophenyl)propane-1-sulfonamide], the IC50 in experiment [1] was under 0.3 µM; in experiment [2], over 3 µM; in experiment [3] (class symbols), 0.3 to 1 µM; in experiment [4], under 2 µM; in experiment [5], under 0.3 µM; in experiment [6] it was under 0.3 µM.
On to `CCCS(=O)(=O)Nc1ccc(F)c(Nc2ncnc3ccc(-c4cccc(OC)n4)cc23)c1F` [compound 37, N-(2,4-difluoro-3-(6-(6-methoxypyridin-2-yl)quinazolin-4-ylamino)phenyl)propane-1-sulfonamide], for which the IC50 in experiment [1] is under 0.3 µM; in experiment [2] it was over 3 µM; in experiment [3] (class symbols) it was 0.3 to 1 µM; in experiment [4] it was under 2 µM; in experiment [5], under 0.3 µM; in experiment [6] it was 0.3 to 1 µM.
